The text below walks through data of PMC9258905, “Discovery of Quercetin and Its Analogs as Potent OXA-48 Beta-Lactamase Inhibitors” (Frontiers in Pharmacology, 2022).

Like-named read-outs stand apart in the source and are kept apart here.

Data set [1] addresses T1, OXA-48 (Klebsiella pneumoniae, UniProt Q6XEC0).
T1 construct: made in house; host or cells: E. coli BL21(DE3)
Nature of the data set: Enzyme inhibition assay against purified OXA-48 with nitrocefin as substrate. The format is biochemical. The following applies: for percent inhibition against OXA-48 / inhibition at 50 µM: nitrocefin substrate; for percent inhibition against OXA-48: 50 µM. How it is done: The inhibitory activity of compounds against the purified OXA-48 was tested on a BioTek HTS reader. The reactions were conducted in 0.1 M phosphate buffer (pH 7.0) supplemented with 50 mM NaHCO3 at 25°C with a final assay volume of 100 μL. The concentrations of enzyme and substrate were 12 nM and 200 μM, respectively. The initial reaction rates in the absence and presence of the compound were monitored at 495 nm in triplicate. The inhibitor concentration causing a 50% decrease in enzyme activity (IC50) was determined by plotting the percent inhibition against the log10 of the inhibitor concentration and fitting the data in a dose–response-inhibition model using GraphPad Prism 7.0.
Quercetin is a member of the flavonoid class with diverse structures obtained from nature, some of which have been used for the treatment of infectious diseases in traditional medical systems ([Farhadi et al., 2019]). To investigate whether quercetin and other flavonoids are OXA-48 inhibitors, the enzyme inhibition assays were conducted on a BioTek HTS reader using nitrocefin as a substrate. The concentrations of enzyme and substrate were 12 nM and 200 μM, respectively. The initial hydrolysis rate of nitrocefin was monitored at 495 nm. The percentage inhibition is defined as the enzyme activity in the absence of inhibitor (100%) minus the remaining activity in the presence of inhibitor.

Data set [2] deals with E. coli BW25113 ∆acrA∆bamB (OXA-48). Nature of the data set: Mouse systemic infection model. The format is in vivo, Kunming mice. To be noted: 10 mg/kg each, intravenous, 1 h post infection; organs 24 h post-infection; vs untreated group.
For data set [3], the system named is E.coli BW25113 ∆acrA∆bamB (OXA-48). Format: cell-based. The following applies: for reduction in the piperacillin MIC: compound at 64 μg/mL. On the procedure:
(§1) The recombinant plasmid containing the Pbla promoter and OXA-48 constructed above was then transformed into BW25113, BW25113 ∆acrA, BW25113 ∆bamB, and BW25113 ∆acrA∆bamB. The above strains were used to study the minimum inhibitory concentration (MIC). Antibiotic susceptibility tests were performed by the microdilution method following Clinical and Laboratory Standards Institute (CLSI) criteria ([CLSI, 2015]). Four E. coli strains expressing OXA-48 were used to assess the inhibitors. The susceptibility to piperacillin/imipenem combined with the compound at a concentration of 16 or 64 μg/mL was determined. […] Each measurement was conducted in triplicate. The fractional inhibitory concentration index (FICI) was determined according to the following formula: FICI = MIC (QT) in combination/MIC (QT) alone + MIC (PIP) in combination/MIC (PIP) alone. The drug interactions are defined as synergistic if the FICI is ≤0.5, indifferent if the FICI is >0.5 and ≤4.0, and antagonistic if the FICI is >4.0.
(§2) To investigate whether the compounds could restore the antimicrobial activity of β-lactam, the MICs of β-lactam antibiotics against resistant Gram-negative bacteria in the absence and presence of compounds (fisetin, 3′,4′,7-trihydroxyflavone, luteolin or quercetin) were determined by using published guidelines described by CLSI ([CLSI, 2015]). Specifically, we used OXA-48 producing strains E. coli BW25113, BW25113 ∆acrA, BW25113 ∆bamB, and BW25113 ∆acrA∆bamB as resistant Gram-negative bacteria. […] Imipenem, a carbapenem antibiotic, was applied at increasing concentrations ranging from 0.03 μg/mL to 4 μg/mL. The compounds were tested at 64 and 16 μg/mL.

The test system of data set [4] is E.coli BW25113 (OXA-48). Format: cell-based. On the procedure:
as §1, §2

Data set [5] relates to E.coli BW25113 ∆acrA (OXA-48). The format is cell-based. On the procedure: as §1, §2
Data set [6] concerns E.coli BW25113 ∆bamB (OXA-48). The format is cell-based. On the procedure:
as §1, §2

Data set [7] concerns mice. The following applies: ref Ardeshir et al., 2018; cited from earlier work.
Data set [8] has as its target T1, OXA-48. In words: Inhibition kinetics (Lineweaver-Burk plots) of OXA-48-catalyzed nitrocefin hydrolysis. Format: biochemical. How it is done: The inhibition mode of quercetin and the inhibition constant (K i) were determined using a Lineweaver–Burk plot by fitting the initial rate versus the substrate concentration at each inhibitor concentration using SigmaPlot 12.0. The nitrocefin concentrations were 25, 50, 75, and 100 μM, respectively. The initial velocity was determined by measuring the […] as described above. All reaction rates were determined in triplicate.
To determine the inhibition mode of the flavonoids, the inhibition kinetics of quercetin, fisetin and luteolin against OXA-48 in the presence of different concentrations of substrate were determined, and the inhibition modes were determined by generating Lineweaver-Burk plots.

For data set [9], the system named is KPC-2. Details: method as in Papp-Wallace et al., 2010. To be noted: for KPC-2; ref Papp-Wallace et al., 2010; cited from earlier work.
The mark [10] stands for this setting: purified OXA-48 12 nM, nitrocefin 200 μM, 0.1 M phosphate buffer pH 7.0, 50 mM NaHCO3, 25°C, read-out: IC50 against OXA-48.
[11] abbreviates: read-out: percent inhibition against OXA-48, at 50 μM compound.

T1 sequence (Q6XEC0 23-265 limits assumed): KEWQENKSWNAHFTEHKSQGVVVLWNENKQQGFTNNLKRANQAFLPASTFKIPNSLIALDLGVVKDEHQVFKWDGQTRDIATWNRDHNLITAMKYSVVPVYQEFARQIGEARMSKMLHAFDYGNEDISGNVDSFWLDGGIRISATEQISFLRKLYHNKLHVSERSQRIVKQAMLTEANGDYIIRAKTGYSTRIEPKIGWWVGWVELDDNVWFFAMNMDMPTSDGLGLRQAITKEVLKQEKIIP

Turning to `O=c1c(O[C@@H]2O[C@H](CO)[C@@H](O)[C@H](O)[C@H]2O)c(-c2ccc(O)c(O)c2)oc2cc(O)cc(O)c12` [Isoquercitrin], the “percent inhibition against OXA-48” value in [1] (at 50 μM compound) is 61%. In addition, the IC50 in [1] (setting [10]) is 11.5 ± 1.22 µM. Further, in data set [1] (setting [11]), the inhibition at 50 µM is greater than 50%.
For the compound `COc1ccc(-c2oc3c(CC=C(C)C)c(O[C@@H]4O[C@H](CO)[C@@H](O)[C@H](O)[C@H]4O)cc(O)c3c(=O)c2O[C@@H]2O[C@@H](C)[C@H](O)[C@@H](O)[C@H]2O)cc1` [Icariin], the “percent inhibition against OXA-48” value is 0.3% in data set [1] (at 50 μM compound) and “less than 20%” in data set [1] (at 50 μM compound, listed as icarlin).
Take `COc1ccc(-c2cc(=O)c3c(O)cc(O[C@@H]4O[C@H](CO[C@@H]5O[C@@H](C)[C@H](O)[C@@H](O)[C@H]5O)[C@@H](O)[C@H](O)[C@H]4O)cc3o2)cc1O` [Diosmin]: the “percent inhibition against OXA-48” value in [1] (at 50 μM compound) was determined as 11%. Besides, in data set [1] (setting [11]), the inhibition at 50 µM is less than 20%.
In the case of `CCN1CCN(C(=O)N[C@@H](C(=O)N[C@@H]2C(=O)N3[C@@H]2SC(C)(C)[C@@H]3C(=O)O)c2ccccc2)C(=O)C1=O` [Piperacillin], the “bacterial load in spleen and liver” value in data set [2] is given as “did not show a significant reduction of bacterial load”. Moreover, the “increase in the piperacillin susceptibility” value in [3] (codeletion of bamB and acrA vs wild type) came out at 8 fold; in data set [6] (deletion of bamB alone vs wild type), 4 fold. For the same compound, the “Antibiotic MIC” value in data set [3] (inhibitor at 16 mg/L) turned out to be 512 µg/mL; in [3] (inhibitor at 64 mg/L), 512 µg/mL; in data set [4] (inhibitor at 16 mg/L), 4096 µg/mL; in data set [4] (inhibitor at 64 mg/L), 4096 µg/mL; in [5] (inhibitor at 16 mg/L) it was 4096 µg/mL; in data set [5] (inhibitor at 64 mg/L), 4096 µg/mL. The “Antibiotic MIC” value in data set [6] (inhibitor at 16 mg/L) and in [6] (inhibitor at 64 mg/L) was 1024 µg/mL in each case.
`O=C1C[C@@H](c2ccc(O)cc2)Oc2cc(O)cc(O)c21` [Naringenin] yielded a concentration for half-maximal inhibition (IC50) in [1] of 68.1 ± 4.12 µM. Further, in data set [1] (at 50 μM compound, read-out: percent inhibition against OXA-48), the inhibition at 50 µM was 27%.
`O=c1cc(-c2ccc(O)c(O)c2)oc2cc(O)cc(O)c12` [Luteolin]: the “reduction in the piperacillin MIC” value in data set [3] was determined as 4 fold. Further, the “MIC decrease for imipenem” value in [3] (compound at a dose of 64 μg/mL) is 2 fold. Further, the LD50 in data set [7] is given as 150 mg/kg. Further, the “percent inhibition against OXA-48” value in data set [1] (at 50 μM compound) was 81%; in [1] (at 50 μM compound, listed as luteolin), “more than 50%”. Further, the half-inhibitory concentration (IC50) in [1] (setting [10]) is 0.55 ± 0.02 µM. In addition, the inhibition mode entry in data set [8] (Lineweaver-Burk plots, Km unchanged, Vmax decreased) was “noncompetitively inhibited”. Besides, the affinity in data set [8] (nitrocefin 25, 50, 75, 100 μM, Lineweaver-Burk) corresponds to a Ki of 0.82 ± 0.05 µM.
In the case of `O=c1cc(-c2ccccc2)oc2cc(O)cc(O)c12` [Chrysin], in data set [1], 108 ± 11 µM corresponded to half-maximal inhibition (IC50). Besides, the “percent inhibition against OXA-48” value is 8% in data set [1] (at 50 μM compound) and “less than 20%” in data set [1] (at 50 μM compound, listed as chrysin).
For `COc1ccc(-c2cc(=O)c3c(OC)c(OC)c(OC)c(OC)c3o2)cc1` [Tangeretin], the inhibition at 50 µM in [1] (setting [11]) amounted to 7%.
As for `O=C1c2c(O)cc(O)cc2OC(c2ccc(O)c(O)c2)C1O` (centres unmarked) [Taxifolin], inhibition in data set [1] was half-maximal at 3.22 ± 0.23 µM (IC50). In data set [1] (at 50 μM compound), the “percent inhibition against OXA-48” value was found to be 76%.
Turning to `O=c1cc(-c2ccc(O)c(O)c2)oc2cc(O)ccc12` [3′,4′,7-trihydroxyflavone], the “reduction in the piperacillin MIC” value in [3] is 8 fold. Moreover, inhibition in [1] was half-maximal at 1.89 ± 0.11 µM (IC50). Besides, the “percent inhibition against OXA-48” value is “more than 50%” in data set [1] (at 50 μM compound) and 80% in [1] (at 50 μM compound, listed as 3',4',7-trihydroxyflavone).
In turn, `O=c1cc(-c2ccc(O)cc2)oc2cc(O)cc(O)c12` [Apigenin] yielded an IC50 in data set [1] of 3.64 ± 0.24 µM. Besides, the “percent inhibition against OXA-48” value was 77% in data set [1] (at 50 μM compound) and “more than 50%” in data set [1] (at 50 μM compound, listed as apigenin).
In data set [1], `O=c1c(O)c(-c2ccc(O)cc2)oc2cc(O)cc(O)c12` [Kaempferol] gave an IC50 of 4.54 ± 0.05 µM. The “percent inhibition against OXA-48” value in data set [1] (at 50 μM compound) is reported as 76%; in data set [1] (at 50 μM compound, listed as kaempferol) it was “more than 50%”.
In the case of `O=C(O)[C@H]1O[C@@H](Oc2cc3oc(-c4ccccc4)cc(=O)c3c(O)c2O)[C@H](O)[C@@H](O)[C@@H]1O` [Baicalin], the inhibition at 50 µM in [1] (setting [11]) turned out to be 25%.
`C[C@@H]1O[C@@H](OC[C@H]2O[C@@H](Oc3c(-c4ccc(O)c(O)c4)oc4cc(O)cc(O)c4c3=O)[C@H](O)[C@@H](O)[C@@H]2O)[C@H](O)[C@H](O)[C@H]1O` [Rutin]: the “percent inhibition against OXA-48” value in [1] (at 50 μM compound) is 9%. The “inhibitory activity against OXA-48 (in words)” value in [1] (larger group at position 3) is recorded as “no inhibitory activity”.
For `O=C(O)[C@H]1/C(=C/CO)O[C@@H]2CC(=O)N21` [clavulanic acid], in [9], the partition ratio is listed as 2,500.
Consider `C[C@@H](O)[C@H]1C(=O)N2C(C(=O)O)=C(SCCN=CN)C[C@H]12` [Imipenem], for which the “Antibiotic MIC” value in data set [3] (inhibitor at 16 mg/L), in [3] (inhibitor at 64 mg/L), in data set [4] (inhibitor at 16 mg/L), in [4] (inhibitor at 64 mg/L), in [5] (inhibitor at 16 mg/L) and in [5] (inhibitor at 64 mg/L) was 4 µg/mL each time. For the same compound, the “Antibiotic MIC” value in [6] (inhibitor at 16 mg/L) and in data set [6] (inhibitor at 64 mg/L) was 4 µg/mL in each case.
In data set [1], `O=c1c(O)c(-c2ccccc2)oc2cc(O)cc(O)c12` [Galangin] registered an IC50 of 216 ± 15 µM. The “percent inhibition against OXA-48” value in [1] (at 50 μM compound) was 3%; in [1] (at 50 μM compound, listed as galangin) it was “less than 20%”.
